Experiments:
[1] = test system: H3K27me3 on bivalent nucleosomes of Karpas422 lymphoma cells; test: Single-molecule decoding of H3K27me3 and H3K4me3 on nucleosomes from EZH2 gain-of-function lymphoma cells treated with EZH2 inhibitor; type: cell-based, human; settings: treatment for 3 days, FIG. 2G
From the text: Genomic loci marked by bivalent chromatin in ESCs are frequently deregulated in cancer cells (26). Moreover, the Polycomb and trithorax complexes that catalyze H3K27me3 and H3K4me3 are often mutated in cancer (27, 28). Applicants therefore leveraged the single-molecule platform to investigate these modifications in cancer cells (FIG. 2B, 2C, 10B). First, Applicants examined three cell lines that lack known Polycomb or trithorax mutations: T-cell acute leukemia (DND-41), embryonic kidney (HEK293), and glioblastoma (GSC8). […] Applicants next examined a leukemia line (SKM-1) with a loss-of-function (LOF) mutation of the PRC2 subunit EZH2 (29, 30) (FIG. 2C). Applicants observed a drastic reduction of H3K27me3-marked nucleosomes, consistent with inactivation of this H3K27 methyltransferase. Applicants also examined a lymphoma cell line (Karpas422) with a gain-of-function (GOF) EZH2 mutation that increases its catalytic activity (30). Here Applicants detected H3K27me3 on a very high proportion of nucleosomes (15%). […] Even when controlling for the large fraction of H3K27me3-marked nucleosomes in these cells, the proportion of bivalent nucleosomes is ˜4-fold greater than expected from random overlap. […] This may reflect increased nucleosome turnover and/or preferential demethylation in such regions. […]

[2] = test system: acetylation marks in ESCs; test: Western blot of acetylation marks in ESCs after HDAC or p300 inhibition; type: cell-based, Mouse; settings: FIG. 12B, corresponds to FIG. 3D
Procedure: FIG. 12A-12B. […] (A) Scatter plot of the observed overlap of the indicated modification pair versus the overlap expected by chance. Corresponds to the data in FIG. 3A, 3B. […] Corresponds to the data in FIG. 3D.
(§1) For HDAC inhibition, 6 million ES cells were plated on a 150 cm plate. 0.5M stock solution of Sodium butyrate (Sigma, 303410) was prepared fresh for each experiment, and diluted in cell media to a final concentration of 1 mM. Following 6 hours of treatment (unless otherwise noted in text), cells were collected and washed with PBS. For p300 inhibition, 4 million ES cells were plated on a 150 cm plate. 25 mM stock solution of C646 (Sigma, SML0002) was prepared and diluted in cell media to a final concentration of 35 μM. Cells were treated for 24 hours, then collected and washed with PBS. For EZH2 inhibition, 2.5 million Karpas422 B-cell non-Hodgkin's lymphoma cells were suspended in 10 ml media. A 10 mM stock solution of the EZH2 inhibitor GSK126 (32) was prepared and diluted 1:1000 in cell media. Cells were harvested 3 days following treatment.

[3] = test system: H3K9ac, H3K27ac, H3K4me3 and H3K27me3 on nucleosomes from ESCs; test: Single-molecule decoding of nucleosomes from ESCs treated with HDAC inhibitor or p300 inhibitor; type: cell-based, Mouse; settings: for change in H3K4me3 or H3K27me3 on nucleosomes: over the course of treatment (sodium butyrate 6 hours, C646 24 hours); for change in acetylation marks (H3K9ac, H3K27ac) on nucleosomes: sodium butyrate 1 mM 6 hours, C646 35 μM 24 hours, vs DMSO; for change in acetylation marks (H3K9ac, H3K27ac) on nucleosomes / preference of acetylation change for H3K4me3-marked nucleosomes (combination H3K27ac and H3K4me3): FIG. 3D; for preference of acetylation change for H3K4me3-marked nucleosomes (combination H3K27ac and H3K4me3): sodium butyrate 6 hours, C646 24 hours
Procedure: Applicants treated ESCs with a pan-HDAC inhibitor (sodium butyrate; 6 hours) or with a p300 HAT inhibitor (C646; 24 hours) and probed extracted nucleosomes for H3K9ac, H3K27ac, H3K4me3 and H3K27me3.
as §1
10 million cells were collected and washed twice with PBS, then resuspended in 500 μl of Lysis buffer (50 mM Tris-HCl pH 7.5, 150 mM NaCl, 1% Triton® X-100, 0.1% sodium deoxycholate, 5 mM CaCl2), supplemented with protease inhibitors (ThermoFisher Scientific, 78425), phosphatase inhibitors (ThermoFisher Scientific, 78420) and HDAC inhibitors (Sodium butyrate, Sigma 303410). Micrococcal Nuclease (ThermoFisher Scientific, 88216) was added to lysis buffer at a concentration of 1 unit per milliliter. The suspension is incubated at 4° C. for 1 hour to lyse the cells, after which MNase is activated by incubating at 37° C. for 20 min and inactivated by addition of EGTA at a final concentration of 20 mM. Next, Applicants centrifuged the lysate for 10 min at max speed and supernatant was transferred to a new tube. 10% of the lysate was used to extract DNA (QIAGEN PCR purification kit, 28104) and run on 2% agarose gel to verify MNase digestion. 100 μl of the lysate were used for ligation of fluorescent, biotinylated adaptors: sample was diluted 1:1 in ligation reaction mixture containing End-It™ DNA End-Repair Kit (Epicentre, ER0720) and Fast-Link™ DNA Ligation Kit (Epicentre, LK0750H). Ligation buffer (100 μl) contained 20 μl ligase buffer, 5 μl of 10 mM dNTPs, 16 μl of 10 Mm ATP, 8 μl End-It, 8 μl fast-link ligase, 1 μl protease inhibitors, 1 μl phosphatase inhibitors, 2 μl of 50 mM sodium butyrate solution, 8 μl annealed adaptors (see sequences below) and H2O. Following at least two hours of ligation at room temperature, 1.5 ml of PBS (supplemented with inhibitors) was added to the sample. Next, the sample was concentrated on an Amicon ultra-4 centrifugal filter unit with ultracel-100 membrane (Millipore, UFC810024) for 15 minutes, and the Pac1 enzymatic reaction (NEB, R0547S) was performed in order to digest adaptor concatemers (adaptors were designed to form Pac1 restriction site in cases of self-ligation). Following Pac1 digestion, nucleosomes were separated on 10-30% glycerol gradients for 18 hours at 35,000 rpm. Fractions were collected and analyzed on 6% DNA retardation gels (ThermoFisher Scientific, EC6365BOX). Gels were imaged with Typhoon trio+imager (Amersham Biosciences), and fractions containing mono-nucleosomes were combined and concentrated on an Amicon Ultra-0.5 Centrifugal Filter Unit with Ultracel-100 membrane (Millipore, UFC510096). For preparation of biotinylated histones (FIG. 2E), histones were purified from ESCs using acid extraction and TCA precipitation as described previously (89). Histones biotinylation was carried out with EZ-Link Sulfo-NHS-Biotinylation Kit (Thermo Scientific, 21425) according to manufacturer's protocol.

SMILES: CC[C@H](C)n1cc(C)c2c(C(=O)NCc3c(C)cc(C)[nH]c3=O)cc(-c3ccc(N4CCNCC4)nc3)cc21 [GSK126]
- loss of H3K27me3 from bivalent nucleosomes [1]: preferential loss of H3K27me3 from bivalent nucleosomes

SMILES: CC1=NN(c2ccc(C(=O)O)cc2)C(=O)/C1=C\c1ccc(-c2cc(C)c(C)cc2[N+](=O)[O-])o1 [C646]
- acetylation marks by Western blot [2]: decrease in acetylation
- change in H3K4me3 or H3K27me3 on nucleosomes [3]: Neither drug altered
- change in acetylation marks (H3K9ac, H3K27ac) on nucleosomes [3]: opposite affect
- preference of acetylation change for H3K4me3-marked nucleosomes (combination H3K27ac and H3K4me3) [3]: H3K4me3-marked nucleosomes were more likely to retain their initial state

SMILES: CCCC(=O)[O-].[Na+] [sodium butyrate, Sodium butyrate]
- acetylation marks by Western blot [2]: increase in acetylation marks
- change in H3K4me3 or H3K27me3 on nucleosomes [3]: Neither drug altered
- change in acetylation marks (H3K9ac, H3K27ac) on nucleosomes [3]: significantly increased
- preference of acetylation change for H3K4me3-marked nucleosomes (combination H3K27ac and H3K4me3) [3]: increased acetylation preferentially affected H3K4me3-marked nucleosomes
